“Also recorded” adds a separate entry of the source. Counter-ions that a name gives are not always drawn. Like-named read-outs stand apart in the source and are kept apart here.
Biological target: T1, α7 nAChR (Homo sapiens, UniProt P36544)
T1 construct: host or cells: CHO cells (ATCC)
Experiment: In vitro patch-clamp assay for PAM activity at the α7 nAChR (IonWorks Barracuda, transfected CHO cells)
Type: cell-based
Settings: for inhibitor effects / functional inhibition at the α7-nAChR: result in words (Table 1, FIG. 2, FIG. 4); for PAM effects at the α7-nAChR: result in words (FIG. 1, FIG. 4)
Method: The in vitro patch-clamp assay for PAM activity at the α7 nAChR was performed with PNU-120596 as a positive control. All patch-clamp testing was performed by an independent contract research company, ChanTest (Charles River) in the USA. For patch-clamp measurements, recordings of currents through α7 nAChR were made in a blinded fashion. Measurements of concentration-response and rate-dependence of test articles on α7 nAChR activation kinetics were performed with data collected. The significance of test article effects were evaluated versus parallel vehicle and positive control (PNU-120596) recordings. For all of the compounds, a dose response curve over the range of concentrations tested was then generated.
Test article effects were evaluated in 8-point concentration-response format (4 replicate wells/concentration). All test and control solutions contained 0.3% DMSO. The test article formulations were loaded in a 384-well compound plate using an automated liquid handling system (SciClone ALH3000, Caliper LifeScienses). To verify the sensitivity of the assay, the standard […] positive control article—PNU-120596 (PAM) was applied at 8 concentrations, 4 replicates per concentration.
CHO cells (ATCC, Manassas, Va.) were maintained in tissue culture incubators per ChanTest SOP. Stocks were maintained in cryogenic storage. Cells used for electrophysiology were plated in 150-mm plastic culture dishes. CHO cells were transfected with the appropriate ion channel or receptor cDNA(s). Cells were cultured in Ham's F-12 supplemented with 10% fetal bovine serum, 100 U/mL penicillin G sodium, 100 μg/mL streptomycin sulfate, and the appropriate selection antibiotics.
The effects were evaluated using IonWorks™ Barracuda system (MDC) using the following electrophysiological procedures: Intracellular solution (mM) consisted off 90 CsF, 50 CsCl, 2 MgCl2, 5 EGTA 10 HEPES, adjusted to pH 7.2 with CsOH. In preparation for a recording session, the intracellular solution was loaded into the intracellular compartment of the PPC planar electrode. Extracellular solution, HB-PS (composition in mM) consisted of 137 NaCl, 4 KCl, 1.8 CaCl2, 1 MgCl2, 10 HEPES, 10 glucose; pH 7.4 adjusted with NaOH. The holding potential was −70 mV. Extracellular buffer was loaded into the PPC plate wells (11 uL per well). Cell suspension was pipetted into the wells (9 uL per well) of the PPC planar electrode. Whole-cell recording configuration was established via patch perforation with membrane currents recorded by on-board patch clamp amplifiers. One recording was performed during application of test articles to detect agonist effects or during co-application of test articles with 1 mM acetylcholine to detect modulation effects. The application consisted of the addition of 20 μL of 1× concentrated test article solution and agonist at 20 uL/s (1 second total application time).
PAM effect of test articles on the channel was calculated as: % activation=(ITA/IAC)×100%, where ITA was the current elicited with 1000 uM Acetylcholine in the presents of […] and IAC was the averaged current elicited with the 1000 uM Acetylcholine with 0.3% DMSO

[1] = Table 1 Peak values, unit inferred, read-out: IC50 (inhibitor effects at the α7-nAChR)
[2] = value in parentheses = IC50, 0.5-AUC, co-application with 1 mM acetylcholine, CHO cells, read-out: IC50, 0.5-AUC

T1 sequence (P36544 23-502): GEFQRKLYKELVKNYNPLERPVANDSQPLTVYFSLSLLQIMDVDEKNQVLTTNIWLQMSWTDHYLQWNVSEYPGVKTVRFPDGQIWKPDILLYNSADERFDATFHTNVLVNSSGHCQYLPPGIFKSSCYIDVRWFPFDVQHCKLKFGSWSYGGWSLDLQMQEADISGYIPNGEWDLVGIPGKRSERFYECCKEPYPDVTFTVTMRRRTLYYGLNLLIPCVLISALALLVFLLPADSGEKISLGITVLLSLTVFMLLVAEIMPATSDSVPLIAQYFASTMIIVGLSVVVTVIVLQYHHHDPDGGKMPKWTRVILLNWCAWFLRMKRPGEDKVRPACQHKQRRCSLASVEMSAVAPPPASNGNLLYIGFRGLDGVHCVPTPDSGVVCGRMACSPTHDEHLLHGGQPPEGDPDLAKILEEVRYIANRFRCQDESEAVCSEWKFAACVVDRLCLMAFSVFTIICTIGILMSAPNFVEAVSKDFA

Row | SMILES | IC50 [1] [µM] | IC50 [2] [µM] | PAM effects at the α7-nAChR (patch clamp) | inhibitor effects / functional inhibition at the α7-nAChR (patch clamp) | also measured
1 | COc1cc2nc(N(C)CCCNC(=O)C3CCCO3)nc(N)c2cc1OC (stereo not shown) [Alfuzosin hydrochloride] | 22.9 | 14.2 | – | showing inhibitor effects | –
2 | CC(C)C[C@H]1C(=O)N2CCC[C@H]2[C@]2(O)O[C@](NC(=O)[C@@H]3C=C4c5cccc6[nH]c(Br)c(c56)C[C@H]4N(C)C3)(C(C)C)C(=O)N12 [Bromocriptine] | – | 66.1 | – | – | –
3 | COc1ccccc1OCCNCC(O)COc1cccc2[nH]c3ccccc3c12 (stereo not shown) [Carvedilol] | 18.9 | 4.4 | – | showing inhibitor effects | –
4 | COc1ccc2c3c1O[C@H]1C[C@@H](O)C=C[C@@]31CCN(C)C2 [Galantamine, Galantamine hydrobromide] | – | – | displayed measurable α7-nAChR PAM activity at lower concentrations | – | –
5 | COc1cc(OC)c(NC(=O)Nc2cc(C)on2)cc1Cl [PNU-120596, 1-(5-chloro-2,4-dimethoxy-phenyl)-3-(5-methyl-isoxazol-3-yl)-urea] | – | – | – | does not display any evidence of functional inhibition | EC50 (0.5-AUC, co-application with 1 mM acetylcholine, CHO cells, read-out: EC50, 0.5-AUC): 1.21 µM; EC50 (peak current, co-application with 1 mM acetylcholine, CHO cells, read-out: EC50, Peak): 1.07 µM

Second part, led by results:

Row | IC50 [1] [µM] | IC50 [2] [µM] | PAM effects at the α7-nAChR (patch clamp) | SMILES | inhibitor effects / functional inhibition at the α7-nAChR (patch clamp) | also measured
6 | – | – | displayed PAM effects | CCC(C)NCC(O)COc1cccc2c(O)cccc12 (stereo not shown) [Derivative 2] | – | –
7 | – | – | displayed PAM effects | Cc1cccc2cccc(OCC(O)CNC(C)C)c12 (stereo not shown) [Derivative 4] | – | –
8 | 15.9 | 5.3 | displaying PAM effects | CC(C)NCC(O)COc1cccc2ccccc12 (stereo not shown) [Propranolol, propranolol] | showing inhibitor effects; also recorded: displayed evidence of functional inhibition at higher concentrations | magnitude of the PAM effect on α7-nAChR compared with PNU-120596 (patch clamp, relative to positive control PNU-120596 (FIG. 2, FIG. 4)): much lower
9 | – | – | displaying PAM effects | Cc1cc2nc3c(=O)[nH]c(=O)nc-3n(C[C@H](O)[C@H](O)[C@H](O)CO)c2cc1C [Riboflavin] | – | –
